Measurements published in article PMC10175918 (Communications Biology, 2023).
Where two headings read alike, the source gives them in different places.

Legend:
Assay in all cases: TGFα-shedding assay-based GPCR screening with chimeric Gα subunit proteins
Assay type in all cases: cell-based
[1] = target: T1, 348 GPCRs (Homo sapiens, UniProt P32238); conditions: 10µM, Favipiravir 100μM
T1 sequence (P32238 1-428): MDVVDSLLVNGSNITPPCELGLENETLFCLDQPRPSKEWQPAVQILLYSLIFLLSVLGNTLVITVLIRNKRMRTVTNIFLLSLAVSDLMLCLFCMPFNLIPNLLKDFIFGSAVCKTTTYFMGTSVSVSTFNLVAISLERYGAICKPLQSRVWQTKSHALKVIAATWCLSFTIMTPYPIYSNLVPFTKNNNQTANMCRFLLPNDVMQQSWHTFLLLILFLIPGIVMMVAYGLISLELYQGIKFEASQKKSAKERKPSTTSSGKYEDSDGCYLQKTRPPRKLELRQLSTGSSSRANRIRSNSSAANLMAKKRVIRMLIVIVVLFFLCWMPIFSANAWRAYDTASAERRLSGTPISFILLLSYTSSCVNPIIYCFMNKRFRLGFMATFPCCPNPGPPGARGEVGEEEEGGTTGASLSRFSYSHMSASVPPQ

[2] = target: T2, 348 GPCRs (Homo sapiens, UniProt P48960)
T2 construct: expressed in transfected cells; host or cells: HEK293A
T2 sequence (P48960 21-835): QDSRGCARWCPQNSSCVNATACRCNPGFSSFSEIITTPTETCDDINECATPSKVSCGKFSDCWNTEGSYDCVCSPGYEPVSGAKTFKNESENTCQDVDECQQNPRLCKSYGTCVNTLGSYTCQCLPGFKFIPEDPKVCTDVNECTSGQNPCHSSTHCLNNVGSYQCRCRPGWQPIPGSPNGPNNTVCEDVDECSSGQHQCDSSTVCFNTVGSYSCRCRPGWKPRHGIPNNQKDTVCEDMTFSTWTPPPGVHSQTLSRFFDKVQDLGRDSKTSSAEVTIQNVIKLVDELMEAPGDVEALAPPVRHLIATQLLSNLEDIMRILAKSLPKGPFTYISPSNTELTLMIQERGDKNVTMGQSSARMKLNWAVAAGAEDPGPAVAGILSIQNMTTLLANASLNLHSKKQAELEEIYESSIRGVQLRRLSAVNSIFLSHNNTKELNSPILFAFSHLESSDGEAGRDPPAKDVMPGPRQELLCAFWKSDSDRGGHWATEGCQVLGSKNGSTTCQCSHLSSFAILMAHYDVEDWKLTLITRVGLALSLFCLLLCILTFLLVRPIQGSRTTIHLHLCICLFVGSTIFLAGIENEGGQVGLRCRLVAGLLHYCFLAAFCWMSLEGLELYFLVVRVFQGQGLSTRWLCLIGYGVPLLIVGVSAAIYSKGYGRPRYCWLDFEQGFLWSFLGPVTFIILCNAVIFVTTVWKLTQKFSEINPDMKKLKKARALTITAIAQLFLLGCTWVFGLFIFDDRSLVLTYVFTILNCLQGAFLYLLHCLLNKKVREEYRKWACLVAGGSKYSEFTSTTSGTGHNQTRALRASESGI

[3] = target: T3, 348 GPCRs (Homo sapiens, UniProt Q6DWJ6); conditions: 10µM, Favipiravir 100μM
T3 construct: expressed in transfected cells; host or cells: HEK293A
T3 sequence (Q6DWJ6 1-353): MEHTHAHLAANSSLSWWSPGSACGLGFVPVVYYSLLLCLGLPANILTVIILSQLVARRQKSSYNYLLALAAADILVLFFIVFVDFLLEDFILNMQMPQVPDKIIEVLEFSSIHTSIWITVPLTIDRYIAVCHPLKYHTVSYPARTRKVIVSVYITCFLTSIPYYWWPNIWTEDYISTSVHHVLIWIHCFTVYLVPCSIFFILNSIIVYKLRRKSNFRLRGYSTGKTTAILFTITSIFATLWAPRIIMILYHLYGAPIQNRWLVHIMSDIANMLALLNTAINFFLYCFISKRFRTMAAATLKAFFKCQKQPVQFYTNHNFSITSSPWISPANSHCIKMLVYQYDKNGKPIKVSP

[4] = target: T4, 348 GPCRs (Homo sapiens, UniProt Q96LB2); conditions: 10µM, Favipiravir 100μM
T4 construct: expressed in transfected cells; host or cells: HEK293A

[5] = target: T5, 348 GPCRs (Homo sapiens, UniProt Q9NSD7); conditions: RXFP3 (relaxin/insulin-like family peptide receptor 3); 10µM, Favipiravir 100μM
T5 construct: expressed in transfected cells; host or cells: HEK293A
T5 sequence (Q9NSD7 1-469): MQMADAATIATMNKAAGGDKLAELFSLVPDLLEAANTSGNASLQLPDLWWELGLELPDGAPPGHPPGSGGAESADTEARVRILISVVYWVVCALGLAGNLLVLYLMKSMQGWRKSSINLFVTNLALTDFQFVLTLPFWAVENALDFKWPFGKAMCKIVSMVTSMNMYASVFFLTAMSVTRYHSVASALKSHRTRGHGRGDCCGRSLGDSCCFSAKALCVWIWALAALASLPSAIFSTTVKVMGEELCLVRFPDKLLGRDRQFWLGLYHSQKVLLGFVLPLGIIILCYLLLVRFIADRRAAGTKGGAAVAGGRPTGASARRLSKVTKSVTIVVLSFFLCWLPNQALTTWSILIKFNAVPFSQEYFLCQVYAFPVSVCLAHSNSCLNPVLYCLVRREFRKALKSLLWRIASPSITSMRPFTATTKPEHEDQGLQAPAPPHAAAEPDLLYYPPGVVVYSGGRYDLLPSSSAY

[6] = CCKAR (cholecystokinin A receptor), read-out: % GPCR activation compared to TPA
[7] = GPCR CD97 (adhesion G protein-coupled receptor E5), read-out: % GPCR activation compared to TPA
[8] = GPR139 (G protein-coupled receptor 139), read-out: % GPCR activation compared to TPA
[9] = MRGPRX1 (MAS-related GPR, member X1), read-out: % GPCR activation compared to TPA
[10] = read-out: % GPCR activation compared to TPA, CCKAR (cholecystokinin A receptor)
[11] = read-out: % GPCR activation compared to TPA, GPCR CD97 (adhesion G protein-coupled receptor E5)
[12] = read-out: % GPCR activation compared to TPA, GPR139 (G protein-coupled receptor 139)
[13] = read-out: % GPCR activation compared to TPA, MRGPRX1 (MAS-related GPR, member X1)

T4 sequence (Q96LB2 whole entry): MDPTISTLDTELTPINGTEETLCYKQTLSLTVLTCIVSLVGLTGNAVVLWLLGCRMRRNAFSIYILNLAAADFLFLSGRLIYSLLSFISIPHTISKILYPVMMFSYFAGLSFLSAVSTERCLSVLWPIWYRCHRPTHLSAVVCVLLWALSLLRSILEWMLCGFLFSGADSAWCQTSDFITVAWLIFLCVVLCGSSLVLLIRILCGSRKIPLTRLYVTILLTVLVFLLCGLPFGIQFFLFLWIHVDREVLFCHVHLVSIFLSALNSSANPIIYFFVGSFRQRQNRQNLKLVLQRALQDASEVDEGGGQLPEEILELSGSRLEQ

| activation at 100 µM [1, 6] | activation at 10 µM [2, 7] | activation at 100 µM [3, 8] | activation at 100 µM [4, 9] | % GPCR activation compared to TPA [5] | activation at 100 µM ([2]; GPCR CD97 (adhesion G protein-coupled receptor E5), 100μM, read-out: % GPCR activation compared to TPA) | SMILES | activation at 100 µM [1, 10] | activation at 10 µM [2, 11] | activation at 100 µM [3, 12] | activation at 100 µM [4, 13] |
| --- | --- | --- | --- | --- | --- | --- | --- | --- | --- | --- |
| -2.84% | -3.9% | -6.35% | -1.59% | 1.985% | – | N#C[C@@]1(c2ccc3c(N)ncnn23)O[C@H](CO)[C@@H](O)[C@H]1O [GS441524] | – | – | – | – |
| -0.523% | – | -7.28% | -1.16% | 1.399% | -3.34% | NC(=O)c1nc(F)cnc1O [favipiravir, 6-fluoro-3-hydroxy-2-pyrazinecarboxamide] | – | – | – | – |
| 2.71% | -0.34% | -23.9% | -2.42% | -2.923% | – | CC(C)C(=O)OC[C@H]1O[C@@H](n2ccc(NO)nc2=O)[C@H](O)[C@@H]1O [molnupiravir] | – | – | – | – |

| SMILES | activation at 100 µM [1, 6] | activation at 10 µM [2, 7] | activation at 100 µM [3, 8] | activation at 100 µM [4, 9] | % GPCR activation compared to TPA [5] | activation at 100 µM ([2]; GPCR CD97 (adhesion G protein-coupled receptor E5), 100μM, read-out: % GPCR activation compared to TPA) | activation at 100 µM [1, 10] | activation at 10 µM [2, 11] | activation at 100 µM [3, 12] | activation at 100 µM [4, 13] |
| --- | --- | --- | --- | --- | --- | --- | --- | --- | --- | --- |
| CCC(CC)COC(=O)[C@H](C)N[P@](=O)(OC[C@H]1O[C@@](C#N)(c2ccc3c(N)ncnn23)[C@H](O)[C@@H]1O)Oc1ccccc1 [remdesivir] | – | – | – | – | 3.551% | – | 1.15% | 1.2% | 2.27% | 0.23% |
| CC(C)OC(=O)[C@H](C)N[P@](=O)(OC[C@H]1O[C@@H](n2ccc(=O)[nH]c2=O)[C@](C)(F)[C@@H]1O)Oc1ccccc1 [sofosbuvir] | – | – | – | – | -2.192% | – | -1.34% | -1.88% | -27.2% | -1.41% |
